One assay concerns mCherry–KANK1. Description: MTS colocalization of truncated or mutated talin constructs with KANK1. Particulars: MTS colocalization assay, cBAK-tagged talin constructs. The assay is classed as cell-based, human. An excerpt:
To examine the effect of these KANK1 mutations on talin interactions in cells, we next used a mitochondrial targeting system (MTS) which we previously used to screen for defined protein–protein interactions. In this assay, one protein is fused to a small peptide sequence from the pro-apoptotic protein BAK (cBAK) which leads to its insertion into the outer membrane of mitochondria. Proteins that interact with the cBAK-tagged protein will get recruited to mitochondria, and this recruitment can be verified either by visualizing colocalization using fluorescence microscopy (figure 4a) or by purification of mitochondria followed by detection of co-precipitates using biochemistry (figure 4b,c). […] To confirm that the interaction was meditated by the R7 domain, we performed the colocalization assays with truncated talin constructs. […]
(§1) Images of fixed samples in PBS were acquired at room temperature using an Olympus IX83 inverted microscope equipped with a 60×/1.42 PlanApo N oil objective and a QImaging Retiga R6 CCD camera, controlled by Metamorph software. Samples were illuminated using LEDs (UV/Cyan/Green-Yellow/Red, Lumencor) for fluorescence excitation; a Sedat filter set (DAPI/FITC/TRITC/Cy5, Chroma, 89000) was used.
On the technique in general: Formazan colour is commonly taken as a measure of viable cells.

The subject of assay [1] is KANK1 localization to focal adhesions of NIH3T3 fibroblasts. Description: KANK1 localization in vin880-expressing cells treated with ROCK inhibitor. The assay is classed as cell-based, mouse. As to the method:
NIH3T3 mouse fibroblasts and HEK293T human epithelial cells were obtained from the American Type Culture Collection (ATCC). The vinculin null and WT mouse embryonic fibroblasts (MEFs) originate from the Eileen Adamson laboratory. All cells were maintained in Dulbecco's Modified Eagle Medium (DMEM; Sigma) supplemented with 10% fetal bovine serum (FBS, Gibco), 1% L-glutamine (Sigma) and 1% non-essential amino acids (Sigma). Talin1&2 null cells were cultured in DMEM F-12 (Gibco) supplemented with 10% FBS, 1% L-glutamine, 1% non-essential amino acids and […] HEPES (Sigma). All cells were cultured at 37̊C supplied with 5% CO2 and 95% humidity. Transient transfections were performed using Lipofectamine LTX with Plus Reagent (Invitrogen) to NIH3T3 cells, Lipofectamine 2000 (Invitrogen) to talin null cells, and jetPRIME reagent (Polyplus) to MEFs and HEK293T cells, as per the manufacturer's instructions.
For fixed cell imaging, cells were cultured in glass-bottom dishes (IBL) coated with bovine fibronectin (Sigma) at a final concentration of 10 µg ml^−1. […]
as §1
FIJI-ImageJ [33] software was used to process all images. Cell-matrix adhesion size was quantified as described previously, by subtracting background signal using a rolling ball algorithm, followed by thresholding to select adhesion structures and the Analyze Particles function to quantify adhesions. […] Pearson's correlation coefficient of fluorescence signals (40 × 40 µm^2 square adhesion area) was measured by subtracting the background signal, followed by automatic thresholding and colocalization analysis using the Bioimaging and Optics Platform (BIOP) version JACoP plugin [34]. […]

Regarding “GFP–talin1G1404L–cBAK: GFP–talin1–cBAK with the R7 G1404L mutation”, the “colocalization of talin construct with KANK1” value in the assay on mCherry–KANK1 is reported as “prevented colocalization”.

Turning to `C[C@@H](N)[C@H]1CC[C@H](C(=O)Nc2ccncc2)CC1` [Y-27632], the “KANK1 localization (in words)” value in assay [1] (NIH3T3 cells expressing vin880 treated with Y-27632) was “KANK1 colocalized with paxillin in FAs throughout the whole FA structure”. The “Pearson's mean correlation coefficient of KANK1/paxillin overlap” value in assay [1] (NIH3T3 with GFP–vin880 and mCherry–KANK1, Y-27632 50 µM, 60 min, 20 images (40 × 40 µm^2) per group, ± s.d., water control r = 0.59 ± 0.05, p < 0.001 (Welch's t-test)) was determined as 0.82 ± 0.04. In addition, the “Percentage of belt-positive FAs” value in assay [1] (NIH3T3 with GFP–vin880 and mCherry–KANK1, Y-27632 50 µM, 60 min, FAs over 0.3 µm^2, n = 17, ± s.d., water control 17.90 ± 3.27% (n = 28), p < 0.001 (Welch's t-test)) is listed as 0.02 ± 0.10%.

Values taken from article PMC10281804, “The structural basis of the talin–KANK1 interaction that coordinates the actin and microtubule cytoskeletons at focal adhesions” (Open Biology, 2023).
